In a compilation of properties of binary mixtures (doi:10.1021/je7001804):

Experiment: xn = mol fraction of the nth substance listed
Conditions: 101 kPa

CC[n+]1ccn(C)c1.O=S(=O)([O-])C(F)(F)F + CCO
speed of sound [m/s]
Conditions | 278.15 K | 288.15 K | 298.15 K | 308.15 K | 318.15 K | 328.15 K
x2 = 0.0508 | 1475.9 | 1452.2 | 1429.4 | 1407 | 1385.2 | 1363.9
x2 = 0.0983 | – | – | 1422.7 | 1400.4 | – | 1357.6
x2 = 0.1483 | 1461.9 | 1438.3 | – | 1393.1 | 1371.1 | 1349.8
x2 = 0.198 | – | 1430.7 | – | – | – | –
x2 = 0.3072 | 1435.9 | – | 1389.3 | 1366.7 | 1344.6 | –
x2 = 0.4068 | 1416.2 | 1392.4 | 1369.2 | 1346.4 | 1323.9 | 1301.8
x2 = 0.4985 | 1394.8 | 1370.6 | 1346.9 | 1323.6 | – | –
x2 = 0.5999 | 1366.8 | – | 1318 | 1294.2 | – | 1247.7
x2 = 0.6991 | – | 1308.5 | 1283.7 | 1259.2 | 1235.1 | 1211.2
x2 = 0.8001 | – | – | 1241.7 | 1215.7 | 1189.9 | 1164.3
x2 = 0.8497 | 1273.5 | 1245.6 | 1218.2 | – | 1164.7 | 1138.4
x2 = 0.9 | 1252.7 | 1223.1 | – | – | 1137.5 | –
x2 = 0.9501 | 1233 | 1201.1 | 1170.1 | 1139.4 | 1109.1 | 1079.2

CC[n+]1ccn(C)c1.O=S(=O)([O-])C(F)(F)F + CO
speed of sound [m/s]
Conditions | 278.15 K | 288.15 K | 298.15 K | 308.15 K | 318.15 K
x2 = 0.0511 | 1477.5 | 1454 | 1431.1 | 1408.8 | 1387
x2 = 0.1016 | 1472 | 1448.7 | – | 1403.7 | 1382
x2 = 0.1557 | 1466.4 | 1443 | – | 1398 | 1376.2
x2 = 0.2035 | – | – | 1414.4 | 1392 | 1370.1
x2 = 0.3006 | 1447.8 | – | 1401.5 | 1379.1 | 1357.3
x2 = 0.3988 | 1432.7 | – | 1386 | 1363.4 | 1341.2
x2 = 0.5074 | 1411.3 | – | – | 1341.7 | 1319.4
x2 = 0.5993 | 1388.7 | 1364.7 | 1341.2 | 1318.2 | 1295.5
x2 = 0.6995 | 1356.5 | 1332 | 1308 | – | 1261.2
x2 = 0.8001 | 1312.5 | 1287.1 | 1262.1 | – | 1213.5
x2 = 0.8498 | 1285 | 1258.6 | 1232.8 | 1207.4 | 1182.5
x2 = 0.8995 | 1253.3 | 1225.3 | 1198 | 1171.2 | 1144.8
x2 = 0.9495 | – | 1186 | – | – | 1099.2
